Assay results taken from US6794124B2, “Preservation solution” (Stiftelsen Facthor, priority 1995, dated 2004).

Key:
blood vessels = test: short-term and long-term preservation of blood vessels
[1] = system: smooth muscular cells and endothelial cells from blood vessels; test: morphology of blood vessel cells after long storage with or without calcium (FIG. 2)
Source text: The vascular endothelium contains hydrocarbon chains which are bound to proteins in the cell membranes, and these constitute a so-called layer of glycocalyx. This is a thin layer of a mucous substance (composed of sugars) which is considered to enclose the cell membranes and which is important to the properties of immunity of the cell and makes the cell wall permeable. These hydrocarbon chains are bound together by, among other things, calcium. If the vascular endothelial cells are subjected to calcium-free solutions for a long time, a disintegration of the important layer of glycocalyx is assumed to take place, and the function of the endothelium thus cannot be perfect. Evidence of these discoveries has been obtained through electron microscope studies of cell membranes in blood vessels that have been stored in preservation solutions with and without calcium.
The pictures show, on the one hand, smooth muscular cells from blood vessels and, on the other hand, endothelial cells from blood vessels that have been stored for a long time with or without calcium. In the case of preservation without calcium (a: smooth muscular cell and c: endothelial cell), there appears an enormous swelling of the nuclei and the cytoplasm in both types of cells.

Row | Molecule | time for which smooth muscle function in blood vessels is preserved (blood vessels; long-term preservation) | cell morphology after long storage [1] | toxicity to the vascular endothelium / endothelial function (blood vessels)
1 | [Ca+2] [calcium] | up to 36 hours | normal structures of the cells | 
2 | heparin [reference compound] |  |  | not toxic to the endothelial function
